BigSolDB 2.1

## COC(=O)c1cc(O)c(O)c(O)c1
In acetone, 293.15 K
  solubility (mole fraction): 0.0929
In acetone, 298.15 K
  solubility (mole fraction): 0.099
In acetone, 303.15 K
  solubility (mole fraction): 0.106
In acetone, 308.15 K
  solubility (mole fraction): 0.113
In acetone, 313.15 K
  solubility (mole fraction): 0.121
In acetone, 318.15 K
  solubility (mole fraction): 0.13
In acetone, 323.15 K
  solubility (mole fraction): 0.139
In acetone, 328.15 K
  solubility (mole fraction): 0.15
In acetone, 333.15 K
  solubility (mole fraction): 0.161
In ethanol, 293.15 K
  solubility (mole fraction): 0.0706
In ethanol, 298.15 K
  solubility (mole fraction): 0.0758
In ethanol, 303.15 K
  solubility (mole fraction): 0.0819
In ethanol, 308.15 K
  solubility (mole fraction): 0.0881
In ethanol, 313.15 K
  solubility (mole fraction): 0.0955
In ethanol, 318.15 K
  solubility (mole fraction): 0.103
In ethanol, 323.15 K
  solubility (mole fraction): 0.11
In ethanol, 328.15 K
  solubility (mole fraction): 0.119
In ethanol, 333.15 K
  solubility (mole fraction): 0.128
In ethyl acetate, 293.15 K
  solubility (mole fraction): 0.0217
In ethyl acetate, 298.15 K
  solubility (mole fraction): 0.0247
In ethyl acetate, 303.15 K
  solubility (mole fraction): 0.0283
In ethyl acetate, 308.15 K
  solubility (mole fraction): 0.0324
In ethyl acetate, 313.15 K
  solubility (mole fraction): 0.0372
In ethyl acetate, 318.15 K
  solubility (mole fraction): 0.0425
In ethyl acetate, 323.15 K
  solubility (mole fraction): 0.0487
In ethyl acetate, 328.15 K
  solubility (mole fraction): 0.055
In ethyl acetate, 333.15 K
  solubility (mole fraction): 0.0621
In isobutanol, 293.15 K
  solubility (mole fraction): 0.02
In isobutanol, 298.15 K
  solubility (mole fraction): 0.0231
In isobutanol, 303.15 K
  solubility (mole fraction): 0.0266
In isobutanol, 308.15 K
  solubility (mole fraction): 0.0306
In isobutanol, 313.15 K
  solubility (mole fraction): 0.0351
In isobutanol, 318.15 K
  solubility (mole fraction): 0.0403
In isobutanol, 323.15 K
  solubility (mole fraction): 0.0462
In isobutanol, 328.15 K
  solubility (mole fraction): 0.0528
In isobutanol, 333.15 K
  solubility (mole fraction): 0.0603
In isopropanol, 293.15 K
  solubility (mole fraction): 0.0505
In isopropanol, 298.15 K
  solubility (mole fraction): 0.0556
In isopropanol, 303.15 K
  solubility (mole fraction): 0.0625
In isopropanol, 308.15 K
  solubility (mole fraction): 0.0677
In isopropanol, 313.15 K
  solubility (mole fraction): 0.0747
In isopropanol, 318.15 K
  solubility (mole fraction): 0.0819
In isopropanol, 323.15 K
  solubility (mole fraction): 0.0902
In isopropanol, 328.15 K
  solubility (mole fraction): 0.0991
In isopropanol, 333.15 K
  solubility (mole fraction): 0.107
In methanol, 293.15 K
  solubility (mole fraction): 0.0812
In methanol, 298.15 K
  solubility (mole fraction): 0.0864
In methanol, 303.15 K
  solubility (mole fraction): 0.0931
In methanol, 308.15 K
  solubility (mole fraction): 0.1
In methanol, 313.15 K
  solubility (mole fraction): 0.107
In methanol, 318.15 K
  solubility (mole fraction): 0.115
In methanol, 323.15 K
  solubility (mole fraction): 0.123
In methanol, 328.15 K
  solubility (mole fraction): 0.134
In methanol, 333.15 K
  solubility (mole fraction): 0.143
In methyl acetate, 293.15 K
  solubility (mole fraction): 0.0266
In methyl acetate, 298.15 K
  solubility (mole fraction): 0.0305
In methyl acetate, 303.15 K
  solubility (mole fraction): 0.0348
In methyl acetate, 308.15 K
  solubility (mole fraction): 0.0396
In methyl acetate, 313.15 K
  solubility (mole fraction): 0.045
In methyl acetate, 318.15 K
  solubility (mole fraction): 0.0509
In methyl acetate, 323.15 K
  solubility (mole fraction): 0.0573
In methyl acetate, 328.15 K
  solubility (mole fraction): 0.0643
In methyl acetate, 333.15 K
  solubility (mole fraction): 0.0718
In n-butanol, 293.15 K
  solubility (mole fraction): 0.0354
In n-butanol, 298.15 K
  solubility (mole fraction): 0.0398
In n-butanol, 303.15 K
  solubility (mole fraction): 0.0446
In n-butanol, 308.15 K
  solubility (mole fraction): 0.0499
In n-butanol, 313.15 K
  solubility (mole fraction): 0.0557
In n-butanol, 318.15 K
  solubility (mole fraction): 0.0621
In n-butanol, 323.15 K
  solubility (mole fraction): 0.069
In n-butanol, 328.15 K
  solubility (mole fraction): 0.0766
In n-butanol, 333.15 K
  solubility (mole fraction): 0.0847
In n-propanol, 293.15 K
  solubility (mole fraction): 0.0425
In n-propanol, 298.15 K
  solubility (mole fraction): 0.0475
In n-propanol, 303.15 K
  solubility (mole fraction): 0.053
In n-propanol, 308.15 K
  solubility (mole fraction): 0.0582
In n-propanol, 313.15 K
  solubility (mole fraction): 0.0646
In n-propanol, 318.15 K
  solubility (mole fraction): 0.0713
In n-propanol, 323.15 K
  solubility (mole fraction): 0.0783
In n-propanol, 328.15 K
  solubility (mole fraction): 0.0864
In n-propanol, 333.15 K
  solubility (mole fraction): 0.0957
